Data taken from patent US12458688B2, “Epitopes” (Scancell Limited, priority 2018, dated 2025).
Where no end group is shown, it is not given here. [ ]: non-standard residue; d: D form. hCit = NC(=O)NCCCC[C@H](N)C(=O)O

Assays:
[1] = system: B16 HHDII/DP4 tumour cells; experiment: Tumour therapy, B16 HHDII/DP4 tumour in HHDII/DP4 mice; assay type: in vivo, mouse; conditions: peptide with CpG/MPLA days 4, 11, 18
From the text: (§1) To determine if the epitopes that stimulate T cell responses are presented on MHC-II within the tumour environment, our homocitrullinated peptides were checked for tumour therapy in B16 tumour models. Mice were implanted with tumour cells on day 1 and then immunised with peptides and CpG/MPLA on days 4, 11 and 18.
HHDII/DP4 mice were challenged with B16 HHDII/DP4 tumour cells and then immunised with ALDOA homocitrulline peptides (FIG. 19c).
Next, we aimed to determine if these cell populations play a role in carbamylation in the tumour microenvironment and are therefore necessary for the anti-tumour effect. HHDII/DP4 mice were implanted with tumour and then immunised with ALDOA homocitrulline peptides. Mice where then either untreated or treated with Ly6G or Ly6C depletion antibodies to remove either the neutrophils/G-MDSCs or monocytes/M-MDSCs, respectively Peptide vaccination was associated with 100% survival whereas peptide and Ly6G+antibody was associated with a slight but significant reduction in the anti-tumour effect (80% survival, p=0.04) (FIG. 23a).
Next, antibodies were used to deplete the Ly6C+ population (FIG. 23b). Ly6C depletion alone increased survival when compared to control (20% survival, p=0.0012). For this study vaccination alone gave 80% survival (p<0.0001).

[2] = system: PBMCs from healthy donors; experiment: CFSE proliferation assay, CD25-depleted PBMCs of healthy donors; assay type: cell-based, human; conditions: 10 μg/ml peptide, day 10, vs media control
Procedure: (§2) Peripheral blood samples were drawn into lithium heparin tubes (Becton Dickinson) and processed immediately following venepuncture. PBMCs were isolated by density gradient centrifugation using Ficoll-Hypaque. Proliferation and cultured ELISpot assay of PBMCs were performed immediately after isolation. For CD25 depletion PBMCs were processed as above and […] using anti-CD25 microbeads and MACS Cell Separation Columns (Miltenyi).
(§3) Briefly, a 50 μM stock solution in warm PBS was prepared from a master solution of 5 mM in dimethyl sulfoxide (DMSO). CFSE was rapidly added to PBMCs (5×10^6 cells/ml loading buffer (PBS with 5% v/v heat inactivated FCS)) to achieve a final concentration of 5 μM. PBMCs were incubated at room temperature in the dark for 5 mins after which non-cellular incorporated CFSE was removed by washing twice with excess (×10 v/v volumes) of loading buffer (300g ×10 mins). Cells were made up in complete media to 1.5×10^6/mL and plated and stimulated with vehicle (negative control), PHA (positive control, final concentration 10 μg/ml) or peptide (10 μg/ml) as described above.
(§4) On day 10, 500 μl of cells were removed from culture, washed in PBS and stained with 1:50 dilution of anti-CD4 (PE-Cy5, clone RPA-T4, ThermoFisher), anti-CD8 efluor 450, clone RPA-T8, ThermoFisher) and anti-CD134 (PE-Cy7, Clone REA621, Miltenyi). […] Stained samples were analysed immediately on a MACSQuant 10 flow cytometer equipped with MACSQuant software version 2.8.168.16380.
Determination as to the existence of a repertoire of T cells for carbamylated epitopes in humans was investigated using PBMCs from normal, healthy donors. […] Cells were labelled with CFSE and proliferation was monitored after stimulation with homocitrulline peptides. […]
Determination as to the existence of a repertoire of T cells for carbamylated Cyk8 epitopes in humans was investigated using PBMCs from seven normal, healthy donors. […] Cells were labelled with CFSE and proliferation was monitored after stimulation with Cyk8 Hcit peptides.

[3] = system: PBMCs from cancer patients; experiment: CFSE proliferation assay, CD25-depleted PBMCs of cancer patients; assay type: cell-based, human; conditions: 10 μg/ml peptide, day 10, vs media control
Procedure: as §2
as §3, with “Cells were made up in complete media to 1.5×10^6/mL and plated and stimulated with vehicle (negative control), PHA (positive control, final concentration 10 μg/ml) or peptide (10 μg/ml) as described above.” left out
as §4, with “2.8.168.16380. […]” for “2.8.168.16380.”

[4] = system: B16F1 HHDII cells that cannot express DR1; experiment: Tumour therapy, B16F1 HHDII lacking DR1 in HHDII/DR1 mice; assay type: in vivo, mouse; conditions: tumour without DR1
From the text: (§5) This is also true in the ALDOA immunised mice.

C57BI/6 mice = experiment: Ex vivo IFNγ ELISpot after peptide immunisation, C57Bl/6 mice; assay type: in vivo, mouse
Procedure: (§6) C57BL/6 mice (Charles River, UK), HLA-DR4 mice (Model #4149, Taconic, USA), HLA-A2/DR1 (HHDII/DR1, Pasteur Institute), HLA-A2.1+/+HLA-DP4+/+hCD4+/+ (HLA-HHDII/DP4) transgenic mice (EM: 02221, European Mouse Mutant Archive) described in patent WO2013/017545 A1 (EMMA repository, France) were used, aged between 8 and 12 weeks. Peptides were dissolved in PBS to 1 mg/ml and then emulsified (a series of dilutions) with CpG ODN 1826 and MPLA 6 μg/mouse of each (Invivogen, UK). Peptides (25 μg/mouse) were injected subcutaneously at the base of the tail. Mice were immunised at days 1, 7 and 14 for peptide immunisation. Spleens were removed for analysis at day 21 unless stated otherwise.
(§7) ELISpot assays were performed using murine IFNγ, IL-17 and IL-10 capture and detection reagents according to the manufacturer's instructions (Mabtech, Sweden). In brief, anti-IFNγ, IL-17 and IL-10 specific antibodies were coated onto wells of 96-well Immobilin-P plate. […] After incubation, captured IFNγ, IL-10 and IL-17 were detected by biotinylated anti-IFNγ, IL-10 and IL-17 antibodies and developed with a streptavidin alkaline phosphatase and chromogenic substrate. […] Spots were analysed and counted using an automated plate reader (Cellular Technologies Ltd).
Significant IFNγ responses were detected to peptide vimentin 116-135 Hcit. […]

[5] = system: splenocytes from immunised mice; experiment: Ex vivo IL-10 ELISpot after peptide immunisation; conditions: mouse, in vivo
Procedure: as §6, §7

[6] = system: tumour cells that were not able to express HLA-DR4; experiment: Tumour therapy, B16F1 lacking DR4 in HLA-DR4 mice; assay type: in vivo, mouse; conditions: tumour without HLA-DR4
From the text: as §5

B16F1 DR4 tumours = experiment: Tumour therapy, B16F1 DR4 tumour in DR4 mice; assay type: in vivo, mouse; conditions: peptide with CpG/MPLA days 4, 11, 18
From the text: as §1
HHDII/DR1 (FIG. 19a) or DR4 (FIG. 19b) transgenic mice were challenged with B16F1 HHDII/DR1 or B16F1 DR4 tumours respectively prior to immunisation with vimentin 116-135Hcit peptide and tumour growth and survival were monitored.

Substance	survival [1] [%]	CD4 T cell proliferation [2]	CD4 T cell proliferation [3]	survival vs control [4]	IFNγ ELISpot response (C57BI/6 mice)	IL-10 ELISpot response [5]	survival rate [6] [%]	overall survival (B16F1 DR4 tumours) [%]
IGGVILFHETLYQ-hcit-ADDGRP (IGGVILFHETLYQ[hCit]ADDGRP) [Aldolase A 74-93 Hcit]	90	significant CD4 proliferation	significant proliferative responses	–	–	–	–	–
NYID-Hcit-VRFLEQQN-Hcit-ILLAEL (NYID[hCit]VRFLEQQN[hCit]ILLAEL) [Vimentin 116-135 Hcit]	–	significant CD4 proliferation	just short of significance	no survival advantage	no IFNγ responses were observed	no production	20	70
hcit-DGADFA-hcit-WRCVL-hcit-IGEH ([hCit]DGADFA[hCit]WRCVL[hCit]IGEH) [Aldolase A 140-157 Hcit]	60	significant CD4 proliferation	–	–	–	–	–	–
